The values below come from patent publication US8338414B2, “Immunosuppressive agent and anti-tumor agent comprising heterocyclic compound as active ingredient” (Zenyaku Kogyo KabushikiKaisha, priority 2005, dated 2012).

Molecules are shown by their SMILES. Where two headings read alike, the source gives them in different places.

Data set [1] has as its system THP-1 cells. The experiment in a line: Proliferation inhibitory activity on hematologic neoplasm cells, THP-1. Type of data set: cell-based. The settings on record: Homo sapiens, THP-1, 72 h; 3 days, Alamar Blue.
Data set [2] deals with Daudi cells. The data set is described as follows: Proliferation inhibitory activity on hematologic neoplasm cells, Daudi. The data set is classed as cell-based. The settings on record: Homo sapiens, Daudi, 72 h; 3 days, Alamar Blue.
Data set [3] deals with Salmonella typhimurium TA98, TA100, TA1535, TA1537 and Escherichia coli WP2uvrA. The data set is described as follows: Ames test. Type of data set: cell-based. The settings on record: preincubation method, with or without S-9, up to 5000 μg/flat plate. On the procedure:
Using 5 strains of Salmonella typhimurium TA98, TA100, TA1535, TA1537 and Escherichia coli WP2uvrA, the test substances (Compound 4, Compound 19, Compound 22 and Compound 24) were tested for their mutagenesis according to a preincubation method.

Data set [4] concerns Jurkat cells. The experiment in a line: Proliferation inhibitory activity on hematologic neoplasm cells, Jurkat. Type of data set: cell-based. The conditions noted are these: Homo sapiens, Jurkat, 72 h; 3 days, Alamar Blue. For orientation: Resazurin is reduced to fluorescent resorufin, in cell work by metabolically active cells.
The subject of data set [5] is mouse spleen cells. The data set is described as follows: Proliferation inhibition assay for mouse spleen cells. The conditions noted are these: 72 h, 3 days, Alamar Blue. Type of data set: cell-based. In a few lines:
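C57BL/6N female mouse spleen cells (2×10^6 cells/mL) stimulated with Con A (3 μg/mL), LPS (100 μg/mL) or anti-mouse IgM (100 μg/mL) alongside serially diluted compounds, 3 days at 37° C, 5% CO2. Alamar Blue added for a further day; fluorescence read at ex 530/em 590 nm.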

The nature of data set [6]: Test for measuring blood level. Type of data set: in vivo. The conditions noted are these: mouse, serum; BDF1 male mice, 200 mg/kg oral, one hour after the administration. On the procedure:
A pharmacokinetic study was performed using 6 week-old BDF1 male mice. The test substances were mixed with hydroxylpropylcellulose (low-molecular weight form) [HPC(L)] in 2.5-fold of the drug weight, and dissolved in dichloromethane. The solvent was evaporated to dryness. To make the dosing formation, the residue was suspended in distilled water to prepare the drug level of 20 mg/mL. The test compounds were administered compulsorily and orally at a dose of 200 mg/kg to the mice that had been starved for 16 hours. One hour after the administration, blood was collected from the orbits of two mice to obtain serum. Internal standards solution and 1 ml of distilled water were added to 100 μL, of serum thus obtained, and then extracted with diethylether. The solvent was evaporated under vacuum, and the residue was resolved with eluent to provide samples for the HPLC measurement. HPLC was performed by using reversed-phase type column, and acetonitrile-phosphate buffer (pH 2.5) was used as the eluent. Using regression curves (Y=aX+b) obtained from the standards, the drug levels in the sample serum were calculated.

Data set [7] deals with U 937 cells. The experiment in a line: Proliferation inhibitory activity on hematologic neoplasm cells, U937. The data set is classed as cell-based. The conditions noted are these: Homo sapiens, U-937, 72 h; 3 days, Alamar Blue. On the procedure: (§1) Daudi cells (5×10^5 cells/mL), Jurkat cells (5×10^5 cells/mL), THP-1 cells (5×10^5 cells/mL), U 937 cells (5×10^5 cells/mL), and HL 60 cells (5×10^5 cells/mL) suspended in RPMI 1640 medium (containing 10% fetal bovine serum, 10 mM HEPES, 1 mM pyruvic acid, 4.5 g/L glucose, 100 units/mL penicillin, and 0.1 mg/mL streptomycin) were seeded in 96 well plates at a capacity of 0.135 mL per well. Serial dilutions of test substances were added to respective wells at 15 μL/well, and incubated under conditions of carbon dioxide 5% at 37° C. for 3 days. Thereafter, Alamar Blue solution was added at 50 μL, and after incubation for one day, the fluorescence intensity at 590 nm using an excitation wavelength of 530 nm was determined by Cytoflour 4000 (Applied Biosystems).

In data set [8] the test system is allogeneic mixed lymphocyte reaction. The experiment in a line: Allogeneic mixed lymphocyte reaction. Type of data set: cell-based, mouse. The settings on record: Mus musculus, Lymphocyte; C57BL/6N spleen stimulator cells, BALB/c lymph node responder cells, 86 hours, BrdU. The protocol:
Spleen cells prepared from C57BL/6N female mice (8-10 weeks old, purchased from Charles River Laboratories Japan Inc.) and peripheral lymph node mononuclear cells prepared from BALB/c female mice (8-10 weeks old, purchased from Charles River Laboratories Japan Inc.) were used as stimulator cells and responder cells, respectively. The respective cells were suspended in RPMI 1640 medium (containing 10% fetal bovine serum, 100 units/mL penicillin, and 0.1 mg/mL streptomycin) (with 2×10^6 cells/mL).

For data set [9], the system named is human peripheral blood mononuclear cells. The data set is described as follows: Proliferation inhibition assay for human peripheral blood mononuclear cells. The settings on record: Homo sapiens, 72 h; PBMC, anti-CD3 and anti-CD28 antibody, 3 days, Alamar Blue. The data set is classed as cell-based. On the procedure:
4 mL of blood collected from healthy subjects was placed on 3 mL of MonoPoly Resolving Medium, and after centrifugation, the mononuclear cell (PBMC) fraction was collected. After washing with saline, PBMC (1×10^5 cells/mL) was suspended in RPMI 1640 medium (containing 10% fetal bovine serum, 10 mM HEPES, 1 mM pyruvic acid, and 4.5 g/L glucose). Next, after having added an anti-CD28 antibody (1 μg/mL) to the suspension, they were seeded on an anti-human CD3 T cell activation plate (BD Bioscience) at a capacity of 0.135 mL per well. Then, serial dilutions of test substances were added to respective wells, and incubated under conditions of carbon dioxide 5% at a temperature 37° C. After 3 days, Alamar Blue solution was added at 50 μL per well, and after incubation for one day, a fluorescence intensity at 590 nm using an excitation wavelength of 530 nm was determined by Cytoflour 4000 (Applied Biosystems).

Data set [10] has as its system Rabbit synoviocytes HIG-82. The experiment in a line: Inhibition assay for proliferation of rabbit synoviocyte. The data set is classed as cell-based. The settings on record: Oryctolagus cuniculus, 72 h; HIG-82, 3 days, Alamar Blue.
Data set [11] concerns HL 60 cells. The data set is described as follows: Proliferation inhibitory activity on hematologic neoplasm cells, HL60. The settings on record: Homo sapiens, HL-60, 72 h; 3 days, Alamar Blue. Type of data set: cell-based. The protocol: as §1
Data set [12] concerns human peripheral blood mononuclear cells. The data set is described as follows: Activation inhibition assay for human peripheral blood mononuclear cells (CD40L, CD69 expression). The conditions noted are these: PBMC, anti-CD3 + anti-CD28, 6 hours, flow cytometry. The data set is classed as cell-based. On the procedure:
In accordance with the method of Assay Example 2, PBMC (2×10^6 cells/mL) was isolated from human peripheral blood, suspended in RPMI 1640 medium (containing 10% fetal bovine serum, 10 mM HEPES, 1 mM pyruvic acid, and 4.5 g/L glucose), and seeded in wells of a 96 well plate at 0.225 mL per well. The test substances were added to respective wells, and then an anti-CD3 antibody (2 μg/mL) and an anti-CD28 antibody (1 μg/mL) were added. Then, after incubation under conditions of carbon dioxide 5% at a temperature 37° C. for 6 hours, the expressions of CD40L and CD69, activation markers, were analysed by flow cytometry. As a result, when the cells were stimulated by both an anti-CD3 antibody and an anti-CD28 antibody, CD40L was expressed on 14.4% of PBMC, which was also CD4 positive. However, the proportion of the cells which expressed CD40L decreased when the cells had been treated with test substances (Compound 4: 4.9%; Compound 20: 3.7%, Compound 24: 3.6%).
A general note: A flow cytometer gives signals particle by particle.

For data set [13], the system named is fulminant hepatitis. The experiment in a line: Fulminant hepatitis model (galactosamine and LPS). The settings on record: BALB/c mice, galactosamine 800 mg/kg and LPS 110 μg/kg i.p. Type of data set: in vivo, mouse. The protocol:
BALB/c male mice (7 weeks old, purchased from Charles River Laboratories Japan Inc.) were used in the experiment. After having orally administered the test substances suspended in 5% HPC, galactosamine (800 mg/kg) and LPS (110 μg/kg) were intraperitoneally administered. Then, survival rates at 72 hours after administration were obtained.

The mark [14] stands for this setting: LPS 100 μg/mL, read-out: Inhibition of LPS response.
Setting [15] is: concanavalin A 3 μg/mL, read-out: Inhibition of Con A response.
Where [16] appears, read: anti-mouse IgM antibody 100 μg/mL, read-out: Inhibition of Anti-IgM antibody response.

Broadly, the melting point is the temperature, or range, at which the solid turns liquid. As to `CC1(C)CN(c2nc(N3CCOCC3)nc(-n3c(C(F)F)nc4c(Cl)cc(N)cc43)n2)CCO1` [Compound 19, 2-(6-Amino-4-chloro-2-difluoromethylbenzimidazol-1-yl)-4-(2,2-dimethylmorpholino)-6-morpholino-1,3,5-triazine], the melting point is 238 °C (dec.). For the same molecule, the IC50 in data set [1] worked out at 120 nM. For the same molecule, in data set [2], the IC50 stood at 21.2 nM. For the same molecule, the “mutagenesis (colony number of reverse mutation)” value in data set [3] is on record as “negative”. In addition, the IC50 in data set [4] turned out to be 1600 nM. In data set [5] (setting [14]), the IC50 lay within 1 to 100 nM. Further, in data set [5] (setting [15]), the IC50 was 1 to 100 nM.
The molecule `CC1(C)COCCN1c1cc(N2CCOCC2)nc(-n2c(C(F)F)nc3c(O)cccc32)n1` [Compound 22, 2-(2-Difluoromethyl-4-hydroxybenzimidazol-1-yl)-4-(3,3-dimethylmorpholino)-6-morpholinopyrimidine] came in with a melting point of 204 to 206 °C. In addition, the “mutagenesis (colony number of reverse mutation)” value in [3] is “negative”. Also, in data set [5] (setting [14]), the IC50 was no more than 1 nM. For the same molecule, the IC50 in [5] (setting [16]) was no more than 1 nM. Besides, the IC50 in data set [5] (setting [15]) was no more than 1 nM.
`COc1cccc2c1nc(C(F)F)n2-c1nc(N2CCOCC2)cc(N2CCO[C@@H](C)[C@H]2C)n1` (relative stereo) [Compound 37, 2-(2-Difluoromethyl-4-methoxybenzimidazol-1-yl)-4-(cis-2,3-dimethylmorpholino)-6-morpholinopyrimidine] had a melting point of 176 to 178 °C. The molecule further gave a concentration at 1 h in data set [6] of 4760 ng/mL.
The corresponding values for `CCOc1cccc2c1nc(C(F)F)n2-c1nc(N2CCOCC2)cc(N2CCOC(C)(C)C2)n1` [Compound 38, 2-(2-Difluoromethyl-4-ethoxybenzimidazol-1-yl)-4-(2,2-dimethylmorpholino)-6-morpholinopyrimidine] are 114 to 116 °C and 5910 ng/mL.
Turning to `COc1cccc2c1nc(C(F)F)n2-c1nc(N2CCOCC2)cc(N2CCOC(C)(C)C2)n1` [Compound 36, 2-(2-Difluoromethyl-4-methoxybenzimidazol-1-yl)-4-(2,2-dimethylmorpholino)-6-morpholinopyrimidine], the melting point fell in the range of 166 to 168 °C. The molecule also yielded a concentration at 1 h in [6] of 7170 ng/mL.
For `OCC1CCCN1c1nc(N2CCOCC2)nc(-n2c(C(F)F)nc3c(O)cccc32)n1` (stereo not shown) [Compound 20, 2-(2-Difluoromethyl-4-hydroxybenzimidazol-1-yl)-4-(2-hydroxymethylpyrrolidin-1-yl)-6-morpholino-1,3,5-triazine], the IC50 was 44 nM in [1]; 8.23 nM in data set [2]; 252 nM in [7]; 136 nM in [8]; 8.15 nM in data set [9]; 122 nM in [10]. For the same molecule, the IC50 in data set [4] was 196 nM; in data set [11] it was 74.5 nM; in [5] (setting [14]) it was no more than 1 nM; in data set [5] (setting [16]), no more than 1 nM; in [5] (setting [15]), no more than 1 nM. Moreover, the “proportion of the cells which expressed CD40L” value in data set [12] (CD4 positive, 14.4% without test substance) is reported as 3.7%. The “proportion of CD4-positive cells which expressed CD69” value in [12] (28.8% without test substance) is reported as 10.1%. In addition, in data set [12] (50.9% without test substance), the “proportion of CD4-negative cells which expressed CD69” value was determined as 10.5%. The entries for the “Survival Rate after 72 Hours” value in [13] (50 mg/kg oral) and in [13] (100 mg/kg oral) were 17% and 72%, respectively.
